How the values were obtained:
[1] = system: inactivated Group A β-hemolytic streptococcus; experiment: Visual evaluation of red line on detection part of immunochromatographic device; conditions: for Result of Visual Evaluation (After Storage at 50° C. for 24 Hours): device stored at 50° C. for 24 hours, then positive analyte sample 5×10^5 org/mL, 5 minutes; for Result of Visual Evaluation (After 5 Minutes): positive analyte sample 5×10^5 org/mL, 150 μL, member order of FIG. 3, acid content per pad as in Table 1
Description: (§1) The immunochromatographic device and the analyte dilution solution produced above were used, and a sample obtained by adding inactivated Group A β-hemolytic streptococcus at 5×10^5 org/mL was used as a positive analyte sample.
The analyte sample in an amount of 150 μL was dropped to the sample droplet receiving part of the device and developed, and a visual evaluation was made after 5 minutes. Any of the following marks was given: “+” (positive) when the red line on the detection part (4) could be visually observed; “++” (strong positive) when the red line could be visually observed clearly; “±” (weak positive) when a light red line could be visually observed; and “−” (negative) when the red line could not be visually observed.
Separately from the above evaluation, the immunochromatographic device produced above were stored at 50° C. for 24 hours, and then the measurement and the visual evaluation were conducted. […]
Immunochromatographic kits were produced and measurement was conducted in the same manners as in Example 1 except that the kind of the acid anhydride in Example 1 was changed to those shown in Table 1.

[2] = Sublimation at 25° C. at 20 Pa (weight change after 12 hours under reduced pressure); type: physicochemical; conditions: 1 g acid, reduced pressure 25° C., weight change within or exceeding 5%
Description: Whether the acids used in the Examples and the Comparative Examples sublimate at 25° C. at 20 Pa was examined by the following method. First, 1 g of an acid was measured in a glass vial, and the weight was measured after subjecting the acid to reduced pressure at 25° C. at 20 Pa for 12 hours.

[3] = system: inactivated Group A β-hemolytic streptococcus; experiment: Color intensity of red line on detection part measured with immunochromatoreader
Description: as §1
The color intensity of the red line on the detection part (4) five minutes after starting development was measured with an immunochromatoreader (manufactured by Hamamatsu Photonics K.K.). As a result, the color intensity was 83.7 mAbs.
An immunochromatographic kit was produced in the same manner as in Example 1 except that the sample droplet receiving member (1), the acid anhydride containing member (7), the labeling substance retaining member (2), the chromatography medium member (3) having the detection part (4) and the absorption member (5) were pasted to a base material composed of a backing sheet (6) in a manner that the members were linked in this order along the direction of sample development (the order shown in FIG. 1), and the color intensity was measured with an immunochromatoreader (manufactured by Hamamatsu Photonics K.K.). As a result, the color intensity after five minutes was 48.1 mAbs.
An immunochromatographic kit was produced in the same manner as in Example 3 except that “malic acid” was used instead of “bicyclo[2,2,2]oct-7-ene-2,3,5,6-tetracarboxylic dianhydride”, which is the acid anhydride, and the color intensity after five minutes was measured with an immunochromatoreader (manufactured by Hamamatsu Photonics K.K.). As a result, the color intensity was 4.1 mAbs.

[4] = five minutes after starting development, member order of FIG. 3 (acid-containing member downstream of labeling member)

Compound | Result of Visual Evaluation (After Storage at 50° C. for 24 Hours) [1] | Result of Visual Evaluation (After 5 Minutes) [1] | Sublimation at 25° C. at 20 Pa [2] | color intensity of the red line on the detection part (4) ([3]; after five minutes, member order of FIG. 1 (acid anhydride member upstream of labeling member)) [mAbs] | color intensity of the red line on the detection part (4) [3, 4] [mAbs]
O=C(ON1C(=O)CCC1=O)c1ccccc1 [Comparative Example 1, N-(benzoyloxy)succinimide] | − | − |  |  | 
O=C1OC(=O)[C@@H]2CC=CC[C@H]12 [Comparative Example 9, cis-4-cyclohexene-1,2-dicarboxylic anhydride] | − | + | A (“A” indicates that the acid did not sublimate) |  | 
O=C1OC(=O)C2C3C=CC(C12)C1C(=O)OC(=O)C31 (stereo not drawn) [Example 1, bicyclo[2,2,2]oct-7-ene-2,3,5,6-tetracarboxylic dianhydride] | ++ | ++ | A (“A” indicates that the acid did not sublimate) | 48.1 | 83.7
O=c1oc(=O)c2cc3c(=O)oc(=O)c3cc12 [Example 2, pyromellitic anhydride] | ++ | ++ | A (“A” indicates that the acid did not sublimate) |  | 
CC#Cc1ccc2c(c1)C(=O)OC2=O [Example 3, 4-(1-propynyl)phthalic anhydride] | + | + | A (“A” indicates that the acid did not sublimate) |  | 
CC(=O)Nc1cccc2c1C(=O)OC2=O [Example 4, 3-acetamidophthalic anhydride] | + | + | A (“A” indicates that the acid did not sublimate) |  | 
O=C1OC(=O)C2CC3C(=O)OC(=O)C3CC12 (stereo not drawn) [Example 5, 1,2,4,5-cyclohexanetetracarboxylic dianhydride] | ++ | ++ | A (“A” indicates that the acid did not sublimate) |  | 
O=C1CC(C2CC3C(=O)OC(=O)C3c3ccccc32)C(=O)O1 (stereo not drawn) [Example 6, 4-(2,5-dioxotetrahydrofuran-3-yl)-1,2,3,4-tetrahydronaphthalene-1,2-dicarboxylic anhydride] | ++ | ++ | A (“A” indicates that the acid did not sublimate) |  | 
O=C1CCC(=O)O1 [compound 2, succinic anhydride] | − | ++ | B (“B” indicates that the acid sublimated) |  | 
O=C(O)CC(O)C(=O)O (stereo not drawn) [compound 3, malic acid] | − | − |  |  | 4.1
C=C(CC(=O)O)C(=O)O [compound 4, itaconic acid] | − | − |  |  | 
O=C(O)CN(CCO)CCO [compound 5, N,N-bis(2-hydroxyethyl)glycine] | − | − |  |  | 
CCCCCCCC/C=C\CCCCCCCC(=O)O [compound 6, oleic acid] | − | − |  |  | 
N[C@@H](CCC(=O)O)C(=O)O [compound 7, glutamic acid] | − | − |  |  | 
O=C1CC(c2ccccc2)C(=O)O1 (stereo not drawn) [compound 8, phenylsussinic acid anhydride] | − | + | A (“A” indicates that the acid did not sublimate) |  | 
octadecenylsuccinic anhydride [Reference Example 2] | ± | ± | A (“A” indicates that the acid did not sublimate) |  | 

Source: patent US11754555B2, “Pad for immunochromatographic device and immunochromatographic device, immunochromatographic kit and immunochromatographic detection method using pad” (TANAKA KIKINZOKU KOGYO K.K., priority 2018, dated 2023)
